Measurements: patent publication US20170190671A1, “BIS(ARYL)CATECHOL DERIVATIVES AS HERBICIDES” (E I DU PONT DE NEMOURS AND COMPANY, priority 2014, published 2017)

Key:
Type in all cases: in vivo
[1] = tested on: galium (catchweed bedstraw, Galium aparine); test: Test C preemergence; conditions: Galium, pre-emergence, 336 h, preemergence, scale 0 to 100, read-out: Plant response rating, Galium
Summary of the method: (§1)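 Greenhouse test; preemergence on seeded loam-sand soil or spray on 1- to 4-leaf plants; solvent + surfactant vehicle; 13-15 day hold; visual comparison with controls; 0 (no effect)-100 (complete control).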

[2] = tested on: morningglory (Ipomoea coccinea); test: Test C preemergence; conditions: Ipomoea, pre-emergence, 336 h, preemergence, scale 0 to 100, read-out: Plant response rating, Morningglory
Summary of the method: as §1

[3] = tested on: oilseed rape (Brassica napus); test: Test C preemergence; conditions: Brassica napus, pre-emergence, preemergence, scale 0 to 100, read-out: Plant response rating, Oilseed Rape
Summary of the method: as §1

[4] = tested on: waterhemp (common waterhemp, Amaranthus rudis); test: Test C preemergence; conditions: Amaranthus tuberculatus, pre-emergence, preemergence, scale 0 to 100, read-out: Plant response rating, Waterhemp
Summary of the method: as §1

[5] = tested on: Italian ryegrass (Lolium multiflorum); test: Test C postemergence; conditions: Lolium multiflorum, post-emergence, 336 h, Postemergence, scale 0 to 100, read-out: Plant response rating, Ryegrass, Italian
[6] = tested on: barnyardgrass (Echinochloa crus-galli); test: Test C postemergence; conditions: Echinochloa crus-galli, post-emergence, Postemergence, scale 0 to 100, read-out: Plant response rating, Barnyardgrass
[7] = tested on: blackgrass (Alopecurus myosuroides); test: Test C postemergence; conditions: Alopecurus myosuroides, post-emergence, 336 h, Postemergence, scale 0 to 100, read-out: Plant response rating, Blackgrass
[8] = tested on: chickweed (common chickweed, Stellaria media); test: Test C postemergence; conditions: Stellaria media, post-emergence, Postemergence, scale 0 to 100, read-out: Plant response rating, Chickweed
corn (Zea mays) = test: Test C postemergence; conditions: Zea mays, post-emergence, 336 h, Postemergence, scale 0 to 100
[9] = tested on: johnsongrass (Sorghum halepense); test: Test C postemergence; conditions: Sorghum halepense, post-emergence, 336 h, Postemergence, scale 0 to 100, read-out: Plant response rating, Johnsongrass
kochia (Kochia scoparia) = test: Test C postemergence; conditions: Bassia scoparia, post-emergence, Postemergence, scale 0 to 100, read-out: Plant response rating, Kochia
[10] = tested on: lambsquarters (Chenopodium album); test: Test C postemergence; conditions: Chenopodium album, post-emergence, 336 h, Postemergence, scale 0 to 100, read-out: Plant response rating, Lambsquarters
[11] = tested on: large (Lg) crabgrass (Digitaria sanguinalis); test: Test C postemergence; conditions: Digitaria sanguinalis, post-emergence, 336 h, Postemergence, scale 0 to 100, read-out: Plant response rating, Crabgrass, Large
[12] = tested on: oilseed rape (Brassica napus); test: Test C postemergence; conditions: Brassica napus, post-emergence, Postemergence, scale 0 to 100, read-out: Plant response rating, Oilseed Rape
[13] = tested on: pigweed (Amaranthus retroflexus); test: Test C postemergence; conditions: Amaranthus retroflexus, post-emergence, 336 h, Postemergence, scale 0 to 100, read-out: Plant response rating, Pigweed
[14] = tested on: ragweed (common ragweed, Ambrosia elatior); test: Test C postemergence; conditions: Ambrosia artemisiifolia, post-emergence, 336 h, Postemergence, scale 0 to 100, read-out: Plant response rating, Ragweed
soybean (Glycine max) = test: Test C postemergence; conditions: Glycine max, post-emergence, Postemergence, scale 0 to 100, read-out: Plant response rating, Soybean
[15] = tested on: velvetleaf (Abutilon theophrasti); test: Test C postemergence; conditions: Abutilon theophrasti, post-emergence, Postemergence, scale 0 to 100, read-out: Plant response rating, Velvetleaf
[16] = tested on: waterhemp (common waterhemp, Amaranthus rudis); test: Test C postemergence; conditions: Amaranthus tuberculatus, post-emergence, Postemergence, scale 0 to 100, read-out: Plant response rating, Waterhemp
wild oat (Avena fatua) = test: Test C postemergence; conditions: Avena fatua, post-emergence, Postemergence, scale 0 to 100, read-out: Plant response rating, Oat, Wild
[17] = tested on: winter wheat (Triticum aestivum); test: Test C postemergence; conditions: Triticum aestivum, post-emergence, 336 h, Postemergence, scale 0 to 100, read-out: Plant response rating, Wheat
[18] = tested on: yellow nutsedge (Cyperus esculentus); test: Test C postemergence; conditions: Cyperus, post-emergence, 336 h, Postemergence, scale 0 to 100, read-out: Plant response rating, Nutsedge, Yellow

Compound: Fc1cnc(Oc2c(Cl)cccc2Oc2ncc(Cl)cn2)nc1 [Compound 18, 5-chloro-2-[5-chloro-6-[(5-fluoro-2-pyrimidinyl)oxy]phenoxy]pyrimidine]
- pest or weed control at 31 g/ha ([1]; 31 g ai/ha): 100%
- pest or weed control at 62 g/ha ([1]; 62 g ai/ha): 100%
- pest or weed control at 125 g/ha ([1]; 125 g ai/ha): 100%
- pest or weed control at 31 g/ha ([2]; 31 g ai/ha): 10%
- pest or weed control at 62 g/ha ([2]; 62 g ai/ha): 60%
- pest or weed control at 125 g/ha ([2]; 125 g ai/ha): 70%
- plant injury at 31 g/ha ([3]; 31 g ai/ha): 100%
- plant injury at 62 g/ha ([3]; 62 g ai/ha): 100%
- plant injury at 125 g/ha ([3]; 125 g ai/ha): 100%
- plant injury at 250 g/ha ([3]; 250 g ai/ha): 100%
- pest or weed control at 31 g/ha ([4]; 31 g ai/ha): 100%
- pest or weed control at 62 g/ha ([4]; 62 g ai/ha): 100%
- pest or weed control at 125 g/ha ([4]; 125 g ai/ha): 100%
- pest or weed control at 250 g/ha ([4]; 250 g ai/ha): 100%
- pest or weed control at 31 g/ha ([5]; 31 g ai/ha): 0%
- pest or weed control at 62 g/ha ([5]; 62 g ai/ha): 0%
- pest or weed control at 125 g/ha ([5]; 125 g ai/ha): 0%
- pest or weed control at 250 g/ha ([5]; 250 g ai/ha): 40%
- pest or weed control at 31 g/ha ([6]; 31 g ai/ha): 5%
- pest or weed control at 62 g/ha ([6]; 62 g ai/ha): 5%
- pest or weed control at 125 g/ha ([6]; 125 g ai/ha): 5%
- pest or weed control at 250 g/ha ([6]; 250 g ai/ha): 10%
- pest or weed control at 31 g/ha ([7]; 31 g ai/ha): 0%
- pest or weed control at 62 g/ha ([7]; 62 g ai/ha): 5%
- pest or weed control at 125 g/ha ([7]; 125 g ai/ha): 5%
- pest or weed control at 250 g/ha ([7]; 250 g ai/ha): 45%
- pest or weed control at 31 g/ha ([8]; 31 g ai/ha): 50%
- pest or weed control at 62 g/ha ([8]; 62 g ai/ha): 55%
- pest or weed control at 125 g/ha ([8]; 125 g ai/ha): 80%
- pest or weed control at 250 g/ha ([8]; 250 g ai/ha): 95%
- Corn plant response rating (crop injury, 0 = no effect, 100 = complete kill) at 31 g/ha (corn (Zea mays); 31 g ai/ha): 5%
- Corn plant response rating (crop injury, 0 = no effect, 100 = complete kill) at 62 g/ha (corn (Zea mays); 62 g ai/ha): 5%
- Corn plant response rating (crop injury, 0 = no effect, 100 = complete kill) at 125 g/ha (corn (Zea mays); 125 g ai/ha): 20%
- Corn plant response rating (crop injury, 0 = no effect, 100 = complete kill) at 250 g/ha (corn (Zea mays); 250 g ai/ha): 55%
- pest or weed control at 31 g/ha ([9]; 31 g ai/ha): 5%
- pest or weed control at 62 g/ha ([9]; 62 g ai/ha): 10%
- pest or weed control at 125 g/ha ([9]; 125 g ai/ha): 5%
- pest or weed control at 250 g/ha ([9]; 250 g ai/ha): 10%
- pest or weed control at 31 g/ha (kochia (Kochia scoparia); 31 g ai/ha): 30%
- pest or weed control at 62 g/ha (kochia (Kochia scoparia); 62 g ai/ha): 50%
- pest or weed control at 125 g/ha (kochia (Kochia scoparia); 125 g ai/ha): 85%
- pest or weed control at 250 g/ha (kochia (Kochia scoparia); 250 g ai/ha): 95%
- pest or weed control at 31 g/ha ([10]; 31 g ai/ha): 65%
- pest or weed control at 62 g/ha ([10]; 62 g ai/ha): 90%
- pest or weed control at 125 g/ha ([10]; 125 g ai/ha): 95%
- pest or weed control at 250 g/ha ([10]; 250 g ai/ha): 95%
- pest or weed control at 31 g/ha ([11]; 31 g ai/ha): 5%
- pest or weed control at 62 g/ha ([11]; 62 g ai/ha): 5%
- pest or weed control at 125 g/ha ([11]; 125 g ai/ha): 55%
- pest or weed control at 250 g/ha ([11]; 250 g ai/ha): 70%
- plant injury at 31 g/ha ([12]; 31 g ai/ha): 20%
- plant injury at 62 g/ha ([12]; 62 g ai/ha): 35%
- plant injury at 125 g/ha ([12]; 125 g ai/ha): 50%
- plant injury at 250 g/ha ([12]; 250 g ai/ha): 80%
- pest or weed control at 31 g/ha ([13]; 31 g ai/ha): 80%
- pest or weed control at 62 g/ha ([13]; 62 g ai/ha): 90%
- pest or weed control at 125 g/ha ([13]; 125 g ai/ha): 95%
- pest or weed control at 250 g/ha ([13]; 250 g ai/ha): 98%
- pest or weed control at 31 g/ha ([14]; 31 g ai/ha): 65%
- pest or weed control at 62 g/ha ([14]; 62 g ai/ha): 75%
- pest or weed control at 125 g/ha ([14]; 125 g ai/ha): 90%
- pest or weed control at 250 g/ha ([14]; 250 g ai/ha): 95%
- plant injury at 31 g/ha (soybean (Glycine max); 31 g ai/ha): 75%
- plant injury at 62 g/ha (soybean (Glycine max); 62 g ai/ha): 85%
- plant injury at 125 g/ha (soybean (Glycine max); 125 g ai/ha): 90%
- plant injury at 250 g/ha (soybean (Glycine max); 250 g ai/ha): 95%
- pest or weed control at 31 g/ha ([15]; 31 g ai/ha): 45%
- pest or weed control at 62 g/ha ([15]; 62 g ai/ha): 60%
- pest or weed control at 125 g/ha ([15]; 125 g ai/ha): 70%
- pest or weed control at 250 g/ha ([15]; 250 g ai/ha): 85%
- pest or weed control at 31 g/ha ([16]; 31 g ai/ha): 80%
- pest or weed control at 62 g/ha ([16]; 62 g ai/ha): 85%
- pest or weed control at 125 g/ha ([16]; 125 g ai/ha): 95%
- pest or weed control at 250 g/ha ([16]; 250 g ai/ha): 98%
- pest or weed control at 31 g/ha (wild oat (Avena fatua); 31 g ai/ha): 0%
- pest or weed control at 62 g/ha (wild oat (Avena fatua); 62 g ai/ha): 0%
- pest or weed control at 125 g/ha (wild oat (Avena fatua); 125 g ai/ha): 5%
- pest or weed control at 250 g/ha (wild oat (Avena fatua); 250 g ai/ha): 30%
- plant injury at 31 g/ha ([17]; 31 g ai/ha): 0%
- plant injury at 62 g/ha ([17]; 62 g ai/ha): 0%
- plant injury at 125 g/ha ([17]; 125 g ai/ha): 0%
- plant injury at 250 g/ha ([17]; 250 g ai/ha): 15%
- pest or weed control at 31 g/ha ([18]; 31 g ai/ha): 5%
- pest or weed control at 62 g/ha ([18]; 62 g ai/ha): 10%
- pest or weed control at 125 g/ha ([18]; 125 g ai/ha): 10%
- pest or weed control at 250 g/ha ([18]; 250 g ai/ha): 10%
